US20240092772A1, “CRYSTALLINE FORM OF A PIPERAZINYL-THIAZOLE DERIVATIVE” (Idorsia Pharmaceuticals Ltd, priority 2021, published 2024)

How the values were obtained:
[1] = Gravimetric vapor sorption (GVS), hygroscopicity determination; assay type: physicochemical; conditions: 25° C.; variation in mass between 40% and 80% RH in first sorption scan; classification in analogy to Ph. Eur. 10.0, section 5.11
Description: Gravimetric Vapor Sorption (GVS) Moisture sorption isotherm was collected on a dynamic vapor sorption analyzer IGASORP HAS-036-080 from Hiden Isochema operated with Isochema HIsorp 2019 software version 4.02.0070. Typically, about 30 mg of a sample is placed in the sample holder and is submitted to a stepwise equilibration at defined relative humidity (RH) setpoints at 25° C. The sample mass is recorded at these setpoints and are used to build the moisture sorption isotherm. The relative humidity setpoints used were 40% to 0% RH followed by 0% to 95% RH in 5% RH intervals. Data shown consist of the moisture sorption isotherm in the range 5% to 90% of the sample submitted to the increasing relative humidity. The variation in mass between 40% relative humidity and 80% relative humidity in the first sorption scan is evaluated for the hygroscopicity determination. The classification is done in analogy to the European Pharmacopeia (Ph. Eur.) 10.0, section 5.11.

[2] = Solid-state stability of crystalline form 3 on isolation/drying (XRPD); assay type: physicochemical; conditions: isolation by filter centrifugation or drying under reduced pressure; transforms to crystalline form 1
Description: In another experiment 0.04 mL of MeCN is added to 20 mg of COMPOUND (e.g. as obtained from Example 1) in a standard glass HPLC vial, and the suspension in the closed vial is submitted to a temperature variation cycle while being stirred with a magnetic stirring bar. Temperature cycling (repetition of heating 20° C. to 40° C. in 1 hour and cooling 40° C. to 20° C. in 4 hours) and stirring for 25 hours is done in a Polar Bear device (Cambridge reactor design, UK) The obtained solid, when analyzed without drying, is COMPOUND in crystalline form 3.
Form 3 is observed by XRPD when measured still in presence of sufficient MeCN. Isolation by filter centrifugation or isolation and drying under reduced pressure leads to the transformation of crystalline form 3 to crystalline form 1, pointing to the metastable nature of form 3 in absence of sufficient MeCN.

## Cc1ncn(CC(=O)N2CCN(c3sc(C(F)(F)F)nc3-c3cnc(C(F)(F)F)nc3)C[C@H]2CCO)n1 [COMPOUND in crystalline form 1, 1-{(R)-2-(2-Hydroxy-ethyl)-4-[2-trifluoromethyl-4-(2-trifluoromethyl-pyrimidin-5-yl)-thiazol-5-yl]-piperazin-1-yl}-2-(3-methyl-[1,2,4]triazol-1-yl)-ethanone]
[1]
  GVS (hygroscopicity): Not hygroscopic

## Cc1ncn(CC(=O)N2CCN(c3sc(C(F)(F)F)nc3-c3cnc(C(F)(F)F)nc3)C[C@H]2CCO)n1 [crystalline form 3, 1-{(R)-2-(2-Hydroxy-ethyl)-4-[2-trifluoromethyl-4-(2-trifluoromethyl-pyrimidin-5-yl)-thiazol-5-yl]-piperazin-1-yl}-2-(3-methyl-[1,2,4]triazol-1-yl)-ethanone]
[2]
  Stability of the crystalline form in absence of sufficient MeCN: metastable
